From patent publication US20140249135A1, “PIM KINASE INHIBITORS AND METHODS OF THEIR USE” (NOVARTIS AG, priority 2007, published 2014) come the findings set out here.

Read-outs that look alike come from different tables or passages of the source. Bounds are passed on as bounds.

In one test the target is Pim2 kinase (Homo sapiens, UniProt Q9P1W9). The experiment in a line: Pim2 ATP depletion assay.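 Further: Luciferase-based luminescent readout of ATP remaining after PIM2 phosphorylates a BAD peptide, final 5 nM enzyme, 4 µM ATP, 10 µM peptide, 2.5% DMSO, run to roughly half ATP consumption.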 It is filed as biochemical.
Sequence of Pim2 kinase (Q9P1W9 whole entry): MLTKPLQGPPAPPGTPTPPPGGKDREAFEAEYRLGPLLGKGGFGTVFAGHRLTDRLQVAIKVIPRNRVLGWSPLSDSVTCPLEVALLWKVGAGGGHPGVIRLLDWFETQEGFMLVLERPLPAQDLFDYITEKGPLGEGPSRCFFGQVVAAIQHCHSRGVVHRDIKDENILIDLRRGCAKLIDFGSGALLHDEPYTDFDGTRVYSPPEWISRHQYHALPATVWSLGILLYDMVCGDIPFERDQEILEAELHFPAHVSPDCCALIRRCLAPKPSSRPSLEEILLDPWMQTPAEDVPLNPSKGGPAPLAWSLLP
A further test has as its system HEL 92.1.7 cells. Description: Cell proliferation assay (CellTiter-Glo), HEL 92.1.7. The format is cell-based. As to conditions: Homo sapiens, read-out: EC50 (μM) HEL 92.1.7. The procedure:
HEL 92.1.7 cells (ATTC No. TIB-180, an erythroleukemia line derived from malignant peripheral blood), MV4-11 cells (ATCC No. CRL-9591, a human acute monocytic leukemia line) and PC3 cells (ATCC No. CRL-1435, a human prostatic adenocarcinoma line) were cultured in RPMI1640 supplemented with 10% FBS, sodium pyruvate and antibiotics. Cells were plated in the same medium at a density of 1000 cells per well into 96 well tissue culture plates, with outside wells vacant, on the day of assay.
Test compounds supplied in DMSO were diluted into DMSO at 500 times the desired final concentrations before dilution into culture media to 2 times final concentrations. Equal volumes of 2× compounds were added to the cells in 96 well plates and incubated at 37° C. for 3 days.
After 3 days plates were equilibrated to room temperature and equal volume of CellTiter-Glow Reagent (Promega) was added to the culture wells. The plates were agitated briefly and luminescent signal was measured with luminometer. The percent inhibition of the signal seen in cells treated with DMSO alone vs. cells treated with control compound was calculated and used to determine EC50 values (i.e., the concentration of a test compound that is required to obtain 50% of the maximum effect in the cells) for tested compounds, as shown in Example 763.

The next test has as its target Pim1 kinase (Homo sapiens, UniProt P11309). The experiment in a line: Pim1 ATP depletion assay.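 Further: Luciferase-luciferin luminescence readout of residual ATP after PIM1 transfers phosphate to a peptide substrate, 40 µM ATP added, reaction run to roughly half ATP consumption.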 The format is biochemical. As to conditions: Pim1 ATP depletion assay.
Another test concerns the target Pim3 kinase (Homo sapiens, UniProt Q86V86). The experiment in a line: Pim3 ATP depletion assay. It is filed as biochemical.
Another test addresses KDR kinase (Homo sapiens, UniProt P35968). The experiment in a line: KDR AlphaScreen assay. As to conditions: KDR IC50 (μM).
The target in test [1] is T1, human full length PKCE enzyme (Homo sapiens, UniProt Q02156).
T1 construct: human full length PKCE enzyme purchased from InVitrogen; purchased InVitrogen
T1 sequence (Q02156 1-737): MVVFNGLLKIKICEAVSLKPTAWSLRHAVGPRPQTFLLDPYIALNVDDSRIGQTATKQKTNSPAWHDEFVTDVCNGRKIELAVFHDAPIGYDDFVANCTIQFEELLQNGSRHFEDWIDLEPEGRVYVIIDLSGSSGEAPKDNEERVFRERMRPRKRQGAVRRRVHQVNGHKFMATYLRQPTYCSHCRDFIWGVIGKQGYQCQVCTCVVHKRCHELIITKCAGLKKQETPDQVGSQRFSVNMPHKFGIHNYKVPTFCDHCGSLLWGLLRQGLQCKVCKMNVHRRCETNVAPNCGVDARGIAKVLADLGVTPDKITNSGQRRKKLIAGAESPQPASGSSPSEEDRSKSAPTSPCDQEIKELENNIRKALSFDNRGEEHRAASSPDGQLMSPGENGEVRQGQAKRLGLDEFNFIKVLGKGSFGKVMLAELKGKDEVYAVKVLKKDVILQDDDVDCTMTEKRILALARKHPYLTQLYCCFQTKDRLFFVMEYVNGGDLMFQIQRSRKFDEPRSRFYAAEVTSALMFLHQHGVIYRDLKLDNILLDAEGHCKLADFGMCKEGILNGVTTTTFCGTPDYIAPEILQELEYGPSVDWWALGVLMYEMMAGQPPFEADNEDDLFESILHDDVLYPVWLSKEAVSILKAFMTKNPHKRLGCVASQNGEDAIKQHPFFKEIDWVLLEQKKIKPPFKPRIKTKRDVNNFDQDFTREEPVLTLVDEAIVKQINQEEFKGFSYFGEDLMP
The experiment in a line: In vitro PKCE assay. The format is biochemical. As to conditions: 10 nM enzyme, 40 uM peptide substrate, 20 uM ATP, KinaseGlo Plus readout; read-out: PKCε IC50.

Sequence of KDR kinase (P35968 20-1356): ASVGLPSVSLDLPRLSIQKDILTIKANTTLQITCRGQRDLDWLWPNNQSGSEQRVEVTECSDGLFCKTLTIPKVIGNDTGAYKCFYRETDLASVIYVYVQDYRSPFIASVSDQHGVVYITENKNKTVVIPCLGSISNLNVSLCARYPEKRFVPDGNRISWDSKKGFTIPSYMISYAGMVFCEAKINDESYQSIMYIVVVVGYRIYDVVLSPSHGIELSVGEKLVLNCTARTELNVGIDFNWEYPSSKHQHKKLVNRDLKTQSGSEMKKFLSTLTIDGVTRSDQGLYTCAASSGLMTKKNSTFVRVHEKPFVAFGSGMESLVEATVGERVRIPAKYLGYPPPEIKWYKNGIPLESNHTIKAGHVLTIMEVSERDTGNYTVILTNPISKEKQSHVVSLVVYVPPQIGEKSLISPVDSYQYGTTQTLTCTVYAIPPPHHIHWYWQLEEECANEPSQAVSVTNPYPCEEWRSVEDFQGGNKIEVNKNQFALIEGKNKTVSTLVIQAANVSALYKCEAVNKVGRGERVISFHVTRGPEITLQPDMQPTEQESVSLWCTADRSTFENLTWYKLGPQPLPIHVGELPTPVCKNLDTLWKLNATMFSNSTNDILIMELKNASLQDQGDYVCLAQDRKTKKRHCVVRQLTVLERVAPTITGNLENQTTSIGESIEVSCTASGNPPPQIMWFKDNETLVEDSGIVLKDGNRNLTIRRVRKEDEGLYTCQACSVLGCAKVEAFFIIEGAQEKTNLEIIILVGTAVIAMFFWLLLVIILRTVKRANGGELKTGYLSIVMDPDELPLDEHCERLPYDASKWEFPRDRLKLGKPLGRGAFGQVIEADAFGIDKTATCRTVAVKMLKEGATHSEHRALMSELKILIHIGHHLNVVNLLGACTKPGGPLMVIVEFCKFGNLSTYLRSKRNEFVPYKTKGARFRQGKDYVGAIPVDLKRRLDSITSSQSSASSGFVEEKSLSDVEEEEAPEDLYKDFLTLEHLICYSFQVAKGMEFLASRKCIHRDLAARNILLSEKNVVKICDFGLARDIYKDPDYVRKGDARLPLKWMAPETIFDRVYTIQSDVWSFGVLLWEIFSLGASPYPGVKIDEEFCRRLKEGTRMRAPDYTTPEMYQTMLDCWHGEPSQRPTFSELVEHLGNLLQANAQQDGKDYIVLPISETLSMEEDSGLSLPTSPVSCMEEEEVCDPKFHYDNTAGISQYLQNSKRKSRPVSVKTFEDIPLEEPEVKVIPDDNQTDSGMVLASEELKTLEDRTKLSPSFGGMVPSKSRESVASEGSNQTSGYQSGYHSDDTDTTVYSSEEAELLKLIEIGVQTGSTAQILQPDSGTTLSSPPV
Sequence of Pim1 kinase (P11309 whole entry): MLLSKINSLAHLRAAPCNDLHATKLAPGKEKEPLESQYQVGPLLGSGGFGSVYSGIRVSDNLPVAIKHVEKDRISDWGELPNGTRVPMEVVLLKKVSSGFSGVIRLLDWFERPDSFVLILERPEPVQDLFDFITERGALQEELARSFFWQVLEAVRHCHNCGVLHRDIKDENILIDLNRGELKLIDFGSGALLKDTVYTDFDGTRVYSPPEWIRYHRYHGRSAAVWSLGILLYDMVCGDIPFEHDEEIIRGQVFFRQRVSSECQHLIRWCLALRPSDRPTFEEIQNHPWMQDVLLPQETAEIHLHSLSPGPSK

Consider `Nc1ncc(Br)nc1C(=O)Nc1cnccc1N1CCCC(N)C1` (stereo not drawn) [Example 181, 3-amino-N-[4-(3-aminopiperidin-1-yl)pyridin-3-yl]-6-bromopyrazine-2-carboxamide], for which the half-maximal inhibitory concentration (IC50) at Pim2 kinase (read-out: IC50 (μM) PIM2), at Pim1 kinase (read-out: IC50 (μM) PIM1) and on Pim3 kinase (read-out: IC50 (μM) PIM3) was less than 1 µM each time. Besides, the half-maximal effective concentration (EC50) in the test on HEL 92.1.7 cells is less than 1 µM.
As for `CS(=O)(=O)c1ccc(-c2ccc(N)c(C(=O)Nc3cnccc3N3CCC[C@H](N)C3)n2)cc1` [Example 319, 3-amino-6-(4-methane-sulfonyl-phenyl)-pyridine-2-carboxylic acid ((S)-3-amino-3,4,5,6-tetrahydro-2H-[1,4′]bi-pyridinyl-3′-yl)-amide], the IC50 at Pim2 kinase (read-out: IC50 (μM) PIM2), at Pim1 kinase (read-out: IC50 (μM) PIM1) and on Pim3 kinase (read-out: IC50 (μM) PIM3) was less than 1 µM throughout. The half-maximal effective concentration (EC50) in the test with HEL 92.1.7 cells was in the range of 1 to 5 µM.
For `Cc1ccc(S(=O)(=O)N2CCCC2)cc1-c1ccc(N)c(C(=O)Nc2cnccc2N2CCC[C@H](N)C2)n1` [Example 321, 3-amino-6-[2-methyl-5-(pyrrolidine-1-sulfonyl)-phenyl]-pyridine-2-carboxylic acid ((S)-3-amino-3,4,5,6-tetrahydro-2H-[1,4′]bi-pyridinyl-3′-yl)-amide], the 50% inhibitory concentration (IC50) on Pim2 kinase (read-out: IC50 (μM) PIM2), on Pim1 kinase (read-out: IC50 (μM) PIM1) and at Pim3 kinase (read-out: IC50 (μM) PIM3) was less than 1 µM in each case. Further, the EC50 with HEL 92.1.7 cells fell in the range of 1 to 5 µM.
As for `Nc1ccc(-c2cc(C(=O)NC3CCCCC3)ccc2F)nc1C(=O)Nc1cnccc1N1CCC[C@H](N)C1` [Example 324, 3-amino-6-(5-cyclohexyl-carbamoyl-2-fluoro-phenyl)-pyridine-2-carboxylic acid ((S)-3-amino-3,4,5,6-tetra-hydro-2H-[1,4′]bipyridinyl-3′-yl)-amide], the IC50 at Pim2 kinase (read-out: IC50 (μM) PIM2), on Pim1 kinase (read-out: IC50 (μM) PIM1) and on Pim3 kinase (read-out: IC50 (μM) PIM3) was less than 1 µM throughout. In addition, in the test with HEL 92.1.7 cells, the 50% effective concentration (EC50) was less than 1 µM.
With `COC(=O)c1ccc(-c2ccc(N)c(C(=O)Nc3cnccc3N3CCC[C@H](N)C3)n2)c(F)c1` [Example 325, 4-[5-amino-6-((S)-3-amino-3,4,5,6-tetrahydro-2H-[1,4′]bi-pyridinyl-3′-ylcarbamoyl)-pyridin-2-yl]-3-fluoro-benzoic acid methyl ester], the 50% inhibitory concentration (IC50) on Pim2 kinase (read-out: IC50 (μM) PIM2), at Pim1 kinase (read-out: IC50 (μM) PIM1) and at Pim3 kinase (read-out: IC50 (μM) PIM3) was less than 1 µM in each case. The EC50 in the test on HEL 92.1.7 cells lay within 1 to 5 µM.
With `CCCNC(=O)c1ccc(F)c(-c2ccc(N)c(C(=O)Nc3cnccc3N3CCC[C@H](N)C3)n2)c1` [Example 326, 3-amino-6-(2-fluoro-5-propyl-carbamoyl-phenyl)-pyridine-2-carboxylic acid ((S)-3-amino-3,4,5,6-tetrahydro-2H-[1,4′]bipyridinyl-3′-yl)-amide], the half-inhibitory concentration (IC50) at Pim2 kinase (read-out: IC50 (μM) PIM2), on Pim1 kinase (read-out: IC50 (μM) PIM1) and on Pim3 kinase (read-out: IC50 (μM) PIM3) was less than 1 µM each time. For the same compound, the EC50 in the test with HEL 92.1.7 cells was in the range of 1 to 5 µM.
For `CCNC(=O)c1ccc(F)c(-c2ccc(N)c(C(=O)Nc3cnccc3N3CCC[C@H](N)C3)n2)c1` [Example 327, 3-amino-6-(5-ethylcarbamoyl-2-fluoro-phenyl)-pyridine-2-carboxylic acid ((S)-3-amino-3,4,5,6-tetrahydro-2H-[1,4′]bi-pyridinyl-3′-yl)-amide], the 50% inhibitory concentration (IC50) on Pim2 kinase (read-out: IC50 (μM) PIM2), at Pim1 kinase (read-out: IC50 (μM) PIM1) and at Pim3 kinase (read-out: IC50 (μM) PIM3) was less than 1 µM throughout. Besides, the concentration giving a half-maximal response (EC50) with HEL 92.1.7 cells is 1 to 5 µM.
For `Cc1ccc(-c2ccc(N)c(C(=O)Nc3cnccc3N3CCC[C@H](N)C3)n2)c(F)c1` [Example 432, 3-amino-6-(2-fluoro-4-methyl-phenyl)-pyridine-2-carboxylic acid ((S)-3-amino-3,4,5,6-tetra-hydro-2H-[1,4′]bipyridinyl-3′-yl)-amide], in the test on HEL 92.1.7 cells, the EC50 fell in the range of 1 to 5 µM.
Regarding `COc1ccc(-c2cnc(N)c(C(=O)Nc3cc(C(=O)c4ccccc4)ccc3N3CCNCC3)n2)cc1` [Example 441, 3-amino-6-(4-methoxy-phenyl)-pyrazine-2-carboxylic acid (5-benzoyl-2-piperazin-1-yl-phenyl)-amide], the IC50 at Pim2 kinase (read-out: IC50 (μM) PIM2) is more than 25 µM; against KDR kinase it was less than 1 µM; at Pim1 kinase (read-out: IC50 (μM) PIM1), 1 to 10 µM; on Pim3 kinase (read-out: IC50 (μM) PIM3) it was 1 to 10 µM; in test [1] it was 10000 to 25000 nM.
Take `Nc1ccc(-c2cnc(N)c(C(F)(F)F)c2)nc1C(=O)Nc1cnccc1N1CCC[C@H](N)C1` [Example 482, 5,6′-Diamino-5′-trifluoromethyl-[2,3′]bipyridinyl-6-carboxylic acid (3-amino-3,4,5,6-tetrahydro-2H-[1,4′]bipyridinyl-3′-yl)-amide]: the half-inhibitory concentration (IC50) on Pim2 kinase (read-out: IC50 (μM) PIM2) is less than 1 µM; at KDR kinase, 10 to 25 µM; at Pim1 kinase (read-out: IC50 (μM) PIM1), less than 1 µM; at Pim3 kinase (read-out: IC50 (μM) PIM3), less than 1 µM; in test [1] it was more than 25000 nM.
On to `Nc1cc(C(F)(F)F)c(-c2ccc(N)c(C(=O)Nc3cnccc3N3CCC[C@H](N)C3)n2)cn1` [Example 483, 5,6′-Diamino-4′-trifluoromethyl-[2,3′]bipyridinyl-6-carboxylic acid (3-amino-3,4,5,6-tetrahydro-2H-[1,4′]bipyridinyl-3′-yl)-amide], for which the half-inhibitory concentration (IC50) was less than 1 µM at Pim2 kinase (read-out: IC50 (μM) PIM2); more than 25 µM against KDR kinase; less than 1 µM on Pim1 kinase (read-out: IC50 (μM) PIM1); less than 1 µM on Pim3 kinase (read-out: IC50 (μM) PIM3); 10000 to 25000 nM in test [1].
For `Nc1ccc(-c2ccc(N)c(C(=O)Nc3cnccc3N3CCC[C@H](N)C3)n2)c(F)n1` [Example 484, 5,6′-Diamino-2′-fluoro-[2,3′]bi-pyridinyl-6-carboxylic acid (3-amino-3,4,5,6-tetrahydro-2H-[1,4′]bipyridinyl-3′-yl)-amide], the IC50 at Pim2 kinase (read-out: IC50 (μM) PIM2) was less than 1 µM; against KDR kinase, more than 25 µM; on Pim1 kinase (read-out: IC50 (μM) PIM1), less than 1 µM; on Pim3 kinase (read-out: IC50 (μM) PIM3) it was less than 1 µM; in test [1], 10000 to 25000 nM.
Turning to `COc1nc(N)ncc1-c1ccc(N)c(C(=O)Nc2cnccc2N2CCC[C@H](N)C2)n1` [Example 485, 3-Amino-6-(2-amino-4-methoxy-pyrimidin-5-yl)-pyridine-2-carboxylic acid (3-amino-3,4,5,6-tetrahydro-2H-[1,4′]bipyridinyl-3′-yl)-amide], the IC50 on Pim2 kinase (read-out: IC50 (μM) PIM2) was less than 1 µM; on KDR kinase, 10 to 25 µM; on Pim1 kinase (read-out: IC50 (μM) PIM1) it was less than 1 µM; at Pim3 kinase (read-out: IC50 (μM) PIM3) it was less than 1 µM; in test [1] it was more than 25000 nM.
`Nc1ccc(-c2cccnc2F)nc1C(=O)Nc1ccncc1N1CCCC(N)C1` (stereo not drawn) [Example 552, 5-Amino-2′-fluoro-[2,3′]bi-pyridinyl-6-carboxylic acid (3-amino-3,4,5,6-tetrahydro-2H-[1,3′]bipyridinyl-4′-yl)-amide]: the half-inhibitory concentration (IC50) is less than 1 µM on Pim2 kinase (read-out: PIM2 IC50); 1 to 10 µM against KDR kinase; less than 1 µM at Pim1 kinase (read-out: PIM1 IC50); less than 1 µM at Pim3 kinase (read-out: PIM3 IC50); 1000 to 10000 nM in test [1].
For the compound `CN1CCC(NC2CCCN(c3ccncc3NC(=O)c3nc(Br)cnc3N)C2)CC1` (stereo not drawn) [Example 597, 3-amino-6-bromo-N-(4-(3-(1-methylpiperidin-4-ylamino)piperidin-1-yl)pyridin-3-yl)pyrazine-2-carboxamide], the IC50 is 1 to 10 µM at Pim2 kinase (read-out: PIM2 IC50); more than 25 µM against KDR kinase; less than 1 µM at Pim1 kinase (read-out: PIM1 IC50); less than 1 µM on Pim3 kinase (read-out: PIM3 IC50); 1000 to 10000 nM in test [1].
In the case of `Nc1ncc(Br)nc1C(=O)Nc1cnccc1N1CCCC(NCc2ccccc2)C1` (stereo not drawn) [Example 598, 3-amino-6-bromo-pyrazine-2-carboxylic acid (3-benzylamino-3,4,5,6-tetrahydro-2H-[1,4′]bi-pyridinyl-3′-yl)-amide], the half-inhibitory concentration (IC50) is 1 to 10 µM on Pim2 kinase (read-out: PIM2 IC50); 1 to 10 µM against KDR kinase; less than 1 µM on Pim1 kinase (read-out: PIM1 IC50); less than 1 µM on Pim3 kinase (read-out: PIM3 IC50); 1000 to 10000 nM in test [1].
